Tests used:
[1] = room temperature; Berneggar and Blau 2002; cited from earlier work
[2] = Solid-state stability and hygroscopicity of polymorph B; format: physicochemical

hygroscopicity [2]	Structure (SMILES)	shelf-life [1] [h]	thermodynamic stability [2]	behaviour at high humidity ([2]; percent relative humidity approaches 80%)	stability of the anhydrous polymorph ([2]; room temperature, atmospheric oxygen, normal humidity)
–	C[C@H](O)[C@H](O)[C@H]1CNc2nc(N)[nH]c(=O)c2N1 [BH4, Tetrahydrobiopterin]	< 8	–	–	–
slightly hygroscopic	C[C@H](O)[C@H](O)[C@H]1CNc2nc(N)[nH]c(=O)c2N1.Cl.Cl [polymorph B, (6R)-5,6,7,8-tetrahydrobiopterin dihydrochloride]	–	highest thermodynamic stability above about 20 °C	appears to take up much more water, loses its crystalline form, and becomes labile to oxidation	stable at room temperature to atmospheric oxygen and normal humidity
